According to ChEMBL document CHEMBL3507680, “University of Dundee, Gates Library screen for HepG2 cell viability”:

Assay: Human HepG2 cell viability assay in 384 well format
Format: toxicity, cell-based
Set-up: dose 125 nL, time 70.5 hour; concentration not given beside the values
Conditions: HepG2 cells, read-out: Inhibition

SMILES | cytotoxicity at 70.5 h [%]
Cc1cc(CN2CCC(CNS(=O)(=O)c3ccccc3Cl)CC2)c(C)o1 | -10.4
CS(=O)(=O)NCC1CCN(C(=O)Oc2ccccc2)CC1 | -3.79
COc1ccc(S(=O)(=O)NCCCc2ccc(N(C)C)cc2)cc1F | -1.57
CCOc1ccc(S(=O)(=O)NCCCc2ccc(N(C)C)cc2)cc1F | 0.733
CCOCC(=O)NCC1CCN(Cc2ccsc2)CC1 | 1.54
CCn1nccc1C(=O)Nc1nc(C)c(C(C)=O)s1 | -5.2
Cc1nnc2ccc(OCCNS(=O)(=O)c3cccs3)nn12 | -9.99
Cc1ccc(C)c(S(=O)(=O)NCCOc2ccc3nnc(C)n3n2)c1 | 42.7
CC(=O)Nc1ccc(SCC(=O)NCC2CCCO2)nn1 (stereo not given) | -2.02
COc1cccc(OC)c1C(=O)NCC(c1cccn1C)N1CCCC1 (stereo not given) | -5.44
Cn1cccc1C(CNC(=O)COc1ccc(Cl)cc1Cl)N1CCCC1 (stereo not given) | -16.7
COc1ccc(C(=O)NCC(c2cccn2C)N2CCN(C)CC2)cc1 (stereo not given) | -4.93
COc1ccc(S(=O)(=O)NCC(c2cccn2C)N(C)C)c(C)c1 (stereo not given) | -12.6
Cc1nnc(C2CCN(C(=O)c3ccsc3)CC2)s1 | -5.71
COC(=O)c1ccc(C(=O)N2CCC(c3nnc(C)s3)CC2)cc1 | -10.2
O=S(=O)(c1cccs1)N1CCN(Cc2nc(-c3ccco3)cs2)CC1 | 1.85
O=S(=O)(c1ccc(Cl)s1)N1CCN(Cc2nc(-c3ccco3)cs2)CC1 | -13.8
CCS(=O)(=O)N1CCC(c2nnc(C3CC3)o2)CC1 | 3.63
CC(C)CNC(=O)c1cn(C(C)C)cc2c(=O)[nH]nc1-2 | -7.94
CC(C)n1cc(C(=O)NCCCn2ccnc2)c2n[nH]c(=O)c-2c1 | -6.63
Cc1csc(NC(=O)Cn2nc(C)ccc2=O)n1 | -9.42
COCCc1nnc(NC(=O)Cc2ccccc2Cl)o1 | -13.9
Cc1nccn1CC1CCN(C(=O)c2ccccc2)CC1 | -7.01

SMILES | cytotoxicity at 70.5 h [%]
COc1ccc(S(=O)(=O)N2CCC(Cn3ccnc3)CC2)cc1 | -6.35
CS(=O)(=O)N1CCC(C(=O)N2CCC(Cn3cccn3)CC2)CC1 | -12.3
O=C(Nc1ccc(CC(=O)N2CCCC2)cc1)NC1CC1 | -7.44
O=C(CSC1CCCC1)N1CCN(C(=O)C2CC2c2cccs2)CC1 (stereo not given) | 33.2
O=C(NCC(O)(c1ccco1)C1CC1)c1ccccc1F (stereo not given) | -14.8
Cn1cccc1C(O)CNC(=O)c1cccc(Cl)c1 (stereo not given) | -9.53
Cc1c(Cl)cccc1S(=O)(=O)NCC(O)c1cccn1C (stereo not given) | -3.24
Cc1ccsc1C(O)CNC(=O)Cc1ccc(S(=O)(=O)C(C)C)cc1 (stereo not given) | -13.3
O=C(NCCC1CN(Cc2c[nH]cn2)CCO1)Nc1ccccc1 (stereo not given) | -8.29
O=C(CCCn1cncn1)N1CCC2(CC1)[C@H](O)C[C@@H]2OCCO | -6.43
O=C(NCc1ccco1)c1cc(N2CC[C@@H](O)C2)ccn1 | 30.9
O=C(NCCc1ccncc1)c1ccc(S(=O)(=O)NC2CCC2)cc1 | -9.51
CN1CCCC2(CCN(c3cccc(C#N)n3)C2)C1=O (stereo not given) | -8.81
CC(C)n1ccnc1C1CCN(C(=O)c2ccc(SCCO)cc2)CC1 | -8.09
Cc1nc2c(c(N(C)C)n1)CCN(C(=O)c1sccc1S(N)(=O)=O)C2 | -7
O=C(O)c1cccnc1CN1CCCCC1CCc1cccs1 (stereo not given) | 12.3
O=C(Cc1ccsc1)N1CCC(Cn2cc(CCO)nn2)CC1 | -14.1
CCC(C)N(Cc1cccnc1)Cc1ccc2c(c1)OCCO2 (stereo not given) | 3.73
COc1cc(N2CCN(Cc3ccc(C)o3)C(CCO)C2)nc(N)n1 (stereo not given) | -4.16
COCc1nc(CNc2cc(C)nc(N3CCCCC3)n2)no1 | -7.86
c1ccc(-c2nc3c(c(NCCc4c[nH]cn4)n2)CCNC3)cc1 | -12.1
CCC(C)NC(=O)NCc1cc2n(n1)CCCN(C1CCCCC1)C2 (stereo not given) | 4.95
O=C(CCn1cc(Cl)cn1)N1C[C@@H]2CC[C@H](C1)N(Cc1ccccn1)C2 | -11.7

SMILES | cytotoxicity at 70.5 h [%]
Cc1oc(-c2ccc(F)cc2)nc1CN1CCOCS1(=O)=O | -12.2
Fc1ccc(C(CNc2ccncn2)N2CCCCC2)cc1 (stereo not given) | -13.6
CCn1ccnc1C1CCN(Cc2cccc(Cl)c2)CC1 | 37.8
Cc1nc(N)nc(C)c1Cc1nc(C2CC2)n[nH]1 | -0.863
COc1ccc(C(=O)N2CCOC3(CNCCOC3)C2)c(OC)n1 (stereo not given) | 28
O=C(NCCN1CCCCCC1)c1coc(COc2ccc(F)cc2)n1 | 8.68
CCOCCn1c(=O)n(CCC=C(C)C)c2cc(C(=O)O)cnc21 | -4.64
Cc1ccccc1CC1(C(=O)O)CCCN(c2ncnc3[nH]ccc23)C1 (stereo not given) | -5.97
Cc1ccccc1CSc1nc(N)cc(N2CCOCC(CO)C2)n1 (stereo not given) | 6.16
Cc1cc(NCCS(C)(=O)=O)nc2cc3c(cc12)CCC3 | -5.3
CCNc1ncc(C(=O)NCCc2csc(-c3ncccn3)n2)cn1 | 5.7
CCC(CC)C(=O)NS(=O)(=O)c1ccc(C#N)cc1C(F)(F)F | -0.398
CC(C)CC(=O)NS(=O)(=O)c1ccc(C#N)cc1C(F)(F)F | -3.13
COc1ccc(Cl)cc1NCC(=O)NCc1cccnc1OC | 17.6
Cn1cnc(S(=O)(=O)NCCN2CCCCCC2)c1Cl | 4.34
CCC(C)C(=O)NS(=O)(=O)c1ccc(C#N)cc1C(F)(F)F (stereo not given) | -3.39
COc1ccnc(N2CCN(C(=O)c3ccn(C)c(=O)c3)CC2)n1 | -1.1
COc1cc(C)nc(N2CCN(C(=O)c3ccn(C)c(=O)c3)CC2)n1 | -0.122
Cc1nc(CN2CCC(N(C)Cc3nnc(C4CC4)n3C)C2)cs1 (stereo not given) | -1.39
Cc1ccccc1CNC(=O)CN1CCCC(Cc2nccn2C)C1 (stereo not given) | -1.13
CCNC(=O)NC(=O)CNC(C)(C)c1ccc2c(c1)OCO2 | -4.4
CCCNC(=O)NC(=O)CNC(C)(C)c1ccc2c(c1)OCCO2 | -2.49
Cc1ccc(N2CCCN(C(=O)CCC3CCCO3)CC2)nn1 (stereo not given) | 4.12

SMILES | cytotoxicity at 70.5 h [%]
COc1ccccc1N1CCC(CNCc2ccc(C#N)cc2)C1 (stereo not given) | 2.02
Cc1cc(CN2CCC(N(C)Cc3nnc(C4CC4)n3C)C2)on1 (stereo not given) | -2.5
Cc1nn(C)c(Cl)c1C1CCCN1C(=O)c1ccc(O)nc1 (stereo not given) | 23.1
CC1COCCN1Cc1nc(-c2cccc(C(F)(F)F)c2)no1 (stereo not given) | -2.89
Cc1nn(C)c(N(C)C)c1CNCc1cccc(Cn2ccnc2)c1 | 3.64
O=C(CCc1nccs1)N1CCCC(n2cccn2)C1 (stereo not given) | 1.23
Cc1cnn(C2CCCN(C(=O)CCCc3ccccn3)C2)c1 (stereo not given) | -1.28
CC(C)n1cc(CN2CCCN(C(=O)CC3CCCO3)CC2)cn1 (stereo not given) | -4.54
Cc1nc(C)n(CC2CCCN(Cc3cccnc3)C2)n1 (stereo not given) | -0.814
CC(C(=O)Nc1ccc(N2CCCCC2)nc1)n1ccnc1 (stereo not given) | 25.5
COc1c(C2CCCN2C(=O)c2ccc3c(c2)OCO3)c(C)nn1C (stereo not given) | -2.19
COc1c(CNCc2cccc(Cn3cncn3)c2)c(C)nn1C | -0.463
Cc1nn(C)c(Cl)c1C1CCCN1C(=O)c1cccc(C#N)c1 (stereo not given) | 0.647
COc1cccc(-c2noc(CN3CCOCC3C)n2)c1 (stereo not given) | -2.13
CC(C(=O)Nc1ccc(N2CCCCC2)nc1)n1cncn1 (stereo not given) | 26.7
O=C(NCC1CCCOC1)c1ccc(-c2ccccc2)[nH]c1=O (stereo not given) | 0.0722
Cc1cccc(-c2ccc(C(=O)NCC3CCCOC3)c(=O)[nH]2)c1 (stereo not given) | -9.36
O=C(NCC1CCOC1)c1ccc(-c2ccccc2)[nH]c1=O (stereo not given) | -7.11
Cc1cnn(C2CCCN(C(=O)CCc3c(C)noc3C)C2)c1 (stereo not given) | -2.08
Cc1nn(CC(C)C)c(N(C)C)c1CNCc1ccccc1CO | -0.0473
Cc1nccn1CCCC(=O)N1CCCC(c2noc(C(C)C)n2)C1 (stereo not given) | -2.96
CC(C)c1nc(C2CCCN(C(=O)CCn3cncn3)C2)no1 (stereo not given) | -2.58
Cc1nn(C)c(Cl)c1C1CCCN1C(=O)c1ccoc1C (stereo not given) | -4.13

SMILES | cytotoxicity at 70.5 h [%]
Cc1nn(C)c(Cl)c1C1CCCN1C(=O)c1ccc2c(c1)COC2 (stereo not given) | -0.781
Cc1nc(CN2CCCC(c3cc(C(N)=O)[nH]n3)C2)oc1C (stereo not given) | -1.85
COc1ccccc1CNC(C)c1ccc2[nH]c(=O)[nH]c2c1 (stereo not given) | 1.17
Cc1ccccc1C1(C(=O)NCCN2CCCC(C)C2)CCOCC1 (stereo not given) | 32.7
Cc1ccccc1C1(C(=O)NCCN2CCCCC2C)CCOCC1 (stereo not given) | -6.68
Cc1ccccc1C1(C(=O)NCCN(C)C)CCOCC1 | -3.78
c1cc(-c2noc(CN3CCn4c(nnc4C4CC4)C3)n2)cs1 | -19.2
Cc1nc2n(n1)CC(NCc1cnn(-c3ccccc3)n1)CC2 (stereo not given) | -9.59
COc1ccc(NC(=O)NCc2ccnc(N(C)C)c2)cn1 | 14.3
O=C(c1sccc1Br)N(Cc1cccnc1)C1CC1 | -13.1
Cc1cnn(C2CCCN(C(=O)c3cccc(-n4cnnn4)c3)C2)c1 (stereo not given) | -3.6
Cc1nnc2n1CCN(Cc1nc(-c3ccoc3)no1)C2 | 13.6
CCC(=O)N1CCN(C(=O)NCCOc2ccc3c(c2)CCC3)CC1 | -8.5
Cc1ccc(-c2nnc(CN3CCCC(Cn4cncn4)C3)o2)cc1 (stereo not given) | -1.97
c1ccc(-c2nnc(CN3CCCC(Cn4cncn4)C3)o2)cc1 (stereo not given) | -7.29
O=C(O)c1cc(S(=O)(=O)N2CCOc3ccccc32)cc(Cl)c1Cl | -9.63
O=C(O)c1ccc(F)c(S(=O)(=O)N2CCOc3ccccc32)c1 | -4.17
Cc1cc(C)c(C(=O)N2CCOCC2c2c(C)n[nH]c2C)o1 (stereo not given) | -6.5
Cc1nccn1C1CCCN(C(=O)c2sccc2-n2cnnn2)C1 (stereo not given) | -8.22
CC(NCc1c(C(C)C)nn(C)c1N1CCOCC1)C(=O)N(C)C (stereo not given) | 23
Cc1nn(C)c(N(C)C)c1CNCCS(C)(=O)=O | 20.1
c1cnc(-c2nc(CNC3CCc4ncnn4C3)cs2)nc1 (stereo not given) | -6.68
Cc1cc(C(=O)N2CCN(C)CC2)nn1CC(=O)NCc1cccs1 | -4.64
